Experimental data from article PMC6957262 (Bioorganic & medicinal chemistry letters, 2015).

Experiments:
hTRPV1 [1] = target: T1, hTRPV1 (Homo sapiens, UniProt Q8NER1); assay: hTRPV1 antagonism of capsaicin; assay type: cell-based; settings: for fold loss in antagonistic potency compared to the corresponding parent (1 or 2): less potent than parent
hTRPV1 [2] = target: T1, hTRPV1; assay: hTRPV1 antagonism of pH activation; assay type: cell-based; settings: heat (45 °C), NADA

T1 sequence (Q8NER1 whole entry): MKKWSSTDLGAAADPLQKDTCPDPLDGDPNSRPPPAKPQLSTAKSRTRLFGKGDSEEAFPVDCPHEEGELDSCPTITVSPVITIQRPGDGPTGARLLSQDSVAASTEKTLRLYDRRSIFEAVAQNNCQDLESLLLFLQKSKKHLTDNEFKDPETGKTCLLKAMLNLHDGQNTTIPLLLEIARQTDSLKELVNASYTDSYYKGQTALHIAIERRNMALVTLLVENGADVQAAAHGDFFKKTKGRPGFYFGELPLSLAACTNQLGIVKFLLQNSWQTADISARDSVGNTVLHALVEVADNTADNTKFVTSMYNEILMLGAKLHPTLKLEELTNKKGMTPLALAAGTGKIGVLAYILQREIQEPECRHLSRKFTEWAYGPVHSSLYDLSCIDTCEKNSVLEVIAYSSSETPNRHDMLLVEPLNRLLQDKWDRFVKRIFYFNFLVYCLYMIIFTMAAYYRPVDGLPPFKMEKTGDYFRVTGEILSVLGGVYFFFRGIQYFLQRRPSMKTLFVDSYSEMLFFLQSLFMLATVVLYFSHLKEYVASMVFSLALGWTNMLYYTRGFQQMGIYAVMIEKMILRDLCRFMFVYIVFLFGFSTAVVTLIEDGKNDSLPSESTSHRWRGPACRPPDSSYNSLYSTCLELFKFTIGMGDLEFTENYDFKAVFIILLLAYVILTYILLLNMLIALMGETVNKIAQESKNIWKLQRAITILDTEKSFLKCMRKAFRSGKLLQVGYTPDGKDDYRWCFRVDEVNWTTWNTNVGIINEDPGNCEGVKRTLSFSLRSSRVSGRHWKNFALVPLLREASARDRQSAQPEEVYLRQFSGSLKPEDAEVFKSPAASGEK

Row | SMILES | fold loss in antagonistic potency compared to the corresponding parent (1 or 2) (hTRPV1 [1]) | fold more potent than parent 1 (hTRPV1 [1]; improvement over parent 1) | fold weaker potency toward the other activators compared to 1 (hTRPV1 [2])
1 | CCC(C(=O)NCc1ccc(C(F)(F)F)nc1N1CCC(C)CC1)c1ccc(NS(C)(=O)=O)c(F)c1 (stereo not drawn) [Compound 21] | 5 fold | – | –
2 | CC1CCN(c2nc(C(F)(F)F)ccc2CNC(=O)C(c2ccc(NS(C)(=O)=O)c(F)c2)C2CCCC2)CC1 (stereo not drawn) [Compound 22] | > 100 fold | – | –
3 | CS(=O)(=O)Nc1ccc(C(C(=O)NCc2ccc(C(F)(F)F)nc2SC2CCCCC2)C2CCCC2)cc1F (stereo not drawn) [Compound 23] | > 100 fold | – | –
4 | CC1CCN(c2nc(C(F)(F)F)ccc2CNC(=O)C(c2ccc(NS(C)(=O)=O)c(F)c2)C2CCCCC2)CC1 (stereo not drawn) [Compound 24] | > 100 fold | – | –
5 | CS(=O)(=O)Nc1ccc(C(C(=O)NCc2ccc(C(F)(F)F)nc2SC2CCCCC2)C2CCCCC2)cc1F (stereo not drawn) [Compound 25] | > 100 fold | – | –
6 | Cc1ccccc1C(C(=O)NCc1ccc(C(F)(F)F)nc1N1CCC(C)CC1)c1ccc(NS(C)(=O)=O)c(F)c1 (stereo not drawn) [Compound 32] | > 140 fold | – | –
7 | Cc1ccccc1C(C(=O)NCc1ccc(C(F)(F)F)nc1SC1CCCCC1)c1ccc(NS(C)(=O)=O)c(F)c1 (stereo not drawn) [Compound 33] | > 140 fold | – | –
8 | Cc1cccc(C(C(=O)NCc2ccc(C(F)(F)F)nc2N2CCC(C)CC2)c2ccc(NS(C)(=O)=O)c(F)c2)c1 (stereo not drawn) [Compound 34] | – | 3 fold | 5–15 fold
9 | Cc1cccc(C(C(=O)NCc2ccc(C(F)(F)F)nc2SC2CCCCC2)c2ccc(NS(C)(=O)=O)c(F)c2)c1 (stereo not drawn) [Compound 35] | 60 fold | – | –
10 | Cc1ccc(C(C(=O)NCc2ccc(C(F)(F)F)nc2N2CCC(C)CC2)c2ccc(NS(C)(=O)=O)c(F)c2)cc1 (stereo not drawn) [Compound 36] | 3–8 fold | – | –
11 | Cc1ccc(C(C(=O)NCc2ccc(C(F)(F)F)nc2SC2CCCCC2)c2ccc(NS(C)(=O)=O)c(F)c2)cc1 (stereo not drawn) [Compound 37] | 3–8 fold | – | –
